Source: US20160039936A1, “FIBROBLAST GROWTH FACTOR RECEPTOR INHIBITION FOR THE TREATMENT OF DISEASE” (UNIVERSITY OF MIAMI, priority 2011, published 2016)

Columns and labels:
[1] = test system: FGFR; settings: Hagel M et al 2015; cited from earlier work
[2] = test system: isolated NRVM; assay: Cross-sectional area (hypertrophy) of isolated NRVM with receptor antagonists (Example 4); format: cell-based, rat; settings: NRVM 48 h, PD173074 10 nM, AZD4547 5 nM, anti-FGFR4 10 μg/ml
Experimental: NRVM were isolated using a standard isolation system (Worthington Biochemical Corporation) (Faul et al., 2011). Hearts from 1-2 day old Sprague Dawley rats were harvested, minced in calcium-and magnesium-free Hank's Balanced Salt Solution (HBSS), and the tissue digested with 50 μg/ml trypsin at 4° C. for 20-24 hours. Soybean trypsin inhibitor in HBSS was added, and the tissue was further digested with collagenase (in Leibovitz L-15 medium) under slow rotation (15 rpm) at 37° C. for 45 minutes. Cells were released by triturating the suspension 20 times with a standard 10 ml plastic serological pipette and filtering it twice through a cell strainer (70 μm, BD Falcon). Cells were incubated at room temperature for 20 minutes and spun at 100 g for 5 minutes. The cell pellet was resuspended in plating medium [Dulbecco's Modified Eagle Medium (DMEM; Cellgro) with 17% Media 199 (Invitrogen), 15% fetal bovine serum (FBS; Invitrogen) and 1% penicillin/streptomycin solution (P/S; Invitrogen)]. Cells were counted using a hemocytometer.
Cells were plated on glass and plastic surfaces, which were coated with laminin (Invitrogen; 10 μg/ml in PBS) at room temperature for 1 hour prior to plating. For immunofluorescence analysis, 3×10^5 cells were seeded per well on glass coverslips in 24-well plates. For Western blot or qPCR analyses of total extracts, 1×10^6 cells were seeded per well in 6-well plates, and for immunoprecipitation assays, 5×10^6 cells were seeded in 10 cm-culture dishes. Cells were left undisturbed in plating medium at 37° C. for 72 hours and then cultured in maintenance medium (DMEM with 20% Media 199, 1% insulin-transferrin-sodium selenite solution [ITS; Sigma-Aldrich] and 1% P/S) in the presence of 100 μM 5-bromo-2′-deoxyuridine (BrdU; Sigam-Aldrich). After 4 days, isolated cardiac myocytes were cultured in BrdU-containing maintenance medium in the presence of recombinant murine FGF23 or FGF2 (both at 25 ng/ml) for different time points.
Cultured cells were fixed in 2% PFA (in 5 mg/ml sucrose) for 5 minutes and permeabilized in 1% Triton X-100 (in PBS) for 10 minutes. We analyzed hypertrophic growth of isolated NRVM and NMVM on laminin-coated glass coverslips after 48 hours of treatment with growth factors. For FGFR4 expression and localization analyses, untreated NMVM from wild-type and FGFR4^−/− mice were immunolabeled. The mouse monoclonal antibody against sarcomeric α-actinin (EA-53; Sigma-Aldrich) was used at 1:1,000, and rabbit polyclonal anti-FGFR4 (C-16; Santa Cruz) at 1:50. Cy3-conjugated goat-anti mouse and Alexa488-conjugated goat-anti rabbit (Jackson Immuno Research) were used as secondary antibodies at 1:300. To visualize nuclei, fixed cells were incubated with 4′,6-diamidino-2-phenylindole (DAPI; 400 ng/ml in PBS) for 10 minutes. Immunofluorescence images were taken on a Leica TCS-SP5 confocal microscope with a 63× oil objective.
Myocyte cross-sectional area was measured based on α-actinin-positive staining using Leica AF6000 fluorescence software. To assess the signaling pathways involved in FGF23- and FGF2-mediated hypertrophy, we analyzed the morphometry of plated cells that were pre-treated with specific inhibitors for 60 minutes prior to the addition of the FGFs at 25 ng/ml (NRVMs) or at 100 ng/ml (NMVMs). The following inhibitors and concentrations were used: pan-FGFR, PD173074 (Sigma-Aldrich) at 10 nM; FGFR1-3, AZD4547 (ChemieTek) at 5 nM; and FGFR4 blocking antibody (human monoclonal, U3-11; U3Pharma) at 10 μg/ml.

Row | Molecule | FGFR4 inhibition [1] | FGF2-induced hypertrophy (cross-sectional area) with receptor antagonist ([2]; FGF2 25 ng/ml) | FGF23-induced hypertrophy (cross-sectional area) with receptor antagonist ([2]; FGF23 25 ng/ml)
1 | C=CC(=O)Nc1cccc(C)c1Nc1ncc2cc(-c3c(Cl)c(OC)cc(OC)c3Cl)ccc2n1 [BLU9931] | very potent and selective | – | –
2 | AZD4547 | – | prevented | but not FGF23-induced hypertrophy
